Assay results from patent US9321768B2, “Indoles as respiratory syncytial virus antiviral agents” (JANSSEN SCIENCES IRELAND UC, priority 2010, dated 2016).
Where two headings read alike, the source gives them in different places.

Assays:
rgRSV224 virus = assay: microbe, parasite or virus in culture; format: cell-based, respiratory syncytial virus (RSV); conditions: for EC50: read-out: WT activity EC50; for SI CC50/EC50: ratio of HeLa CC50 to rgRSV224 EC50
Method: (§1) Black 96-well clear-bottom microtiter plates (Corning, Amsterdam, The Netherlands) were filled in duplicate using a customized robot system with serial 4-fold dilutions of compound in a final volume of 50 μl culture medium [RPMI medium without phenol red, 10% FBS, 0.04% gentamycin (50 mg/ml) and 0.5% DMSO]. Then, 100 μl of a HeLa cell suspension (5×10^4 cells/ml) in culture medium was added to each well followed by the addition of 50 μl rgRSV224 (MOI=0.02) virus in culture medium using a multidrop dispenser (Thermo Scientific, Erembodegem, Belgium). rgRSV224 virus is an engineered virus that includes an additional GFP gene (Hallak et al, 2000) and was in-licensed from the NIH (Bethesda, Md., USA). Medium, virus- and mockinfected controls were included in each test. Cells were incubated at 37° C. in a 5% CO2 atmosphere. Three days post-virus exposure, viral replication was quantified by measuring GFP expression in the cells by a MSM laser microscope (Tibotec, Beerse, Belgium). The EC50 was defined as the 50% inhibitory concentration for GFP expression. In parallel, compounds were incubated for three days in a set of white 96-well microtitier plates (Corning) and the cytotoxicity of compounds in HeLa cells was determined by measuring the ATP content of the cells using the ATPlite kit (PerkinElmer, Zaventem, Belgium) according to the manufacturer's instructions. The CC50 was defined as the 50% concentration for cytotoxicity.

[1] = Cytotoxicity in HeLa cells, ATP content (ATPlite kit); format: cell-based; conditions: human
Method: as §1

[2] = human respiratory syncytial virus, HeLa, 72 h
[3] = rgRSV224 (MOI=0.02) in HeLa cells, GFP expression three days post-virus exposure

CS(=O)(=O)CCCn1c(Cn2c(=O)n(C3CC3)c3ccncc32)cc2cc(Cl)ccc21 [Compound 1, 3-((5-Chloro-1-(3-(methylsulfonyl)propyl)-1H-indol-2-yl)methyl)-1-cyclopropyl-1H-imidazo[4,5-c]pyridin-2(3H)-one]
EC50 (rgRSV224 virus; [2]): 0.286 nM
CC50 at 3 days [1]: > 9840 nM

CS(=O)(=O)CCCn1c(Cn2c(=O)n(C3CC3)c3ccncc32)cc2cc(Br)ccc21 [Compound 2, 3-((5-bromo-1-(3-(methylsulfonyl)propyl)-1H-indol-2-yl)methyl)-1-cyclopropyl-1H-imidazo[4,5-c]pyridine-2(3H)-one]
EC50 (rgRSV224 virus; [2]): 0.288 nM
CC50 at 3 days [1]: > 9840 nM

N#CCCCCn1c(Cn2c(=O)n(C3CC3)c3ccncc32)cc2cc(Br)ccc21 [Compound 3, 5-((5-bromo-2-(1-cyclopropyl-2-oxo-1H-imidazo[4,5-c]pyridin-3(2H)-yl)methyl)-1H-indol-1-yl)pentanenitrile]
EC50 (rgRSV224 virus; [2]): 0.452 nM
CC50 at 3 days [1]: > 9840 nM

O=c1n(Cc2cc3cc(Br)ccc3n2CCCCO)c2cnccc2n1C1CC1 [Compound 4, 3-((5-bromo-1-(4-hydroxybutyl)-1H-indol-2-yl)methyl)-1-cyclopropyl-1H-imidazo[4,5-c]pyridin-2(3H)-one]
EC50 (rgRSV224 virus; [2]): 1.12 nM
CC50 at 3 days ([1]; HeLa cells, three days incubation, ATP content, read-out: Toxicity CC50): 48700 nM

CS(=O)(=O)CCCn1c(Cn2c(=O)n(C3COC3)c3ccncc32)cc2cc(Br)ccc21 [Compound 5, 3-((5-Bromo-1-(3-(methylsulfonyl)propyl)-1H-indol-2-yl)methyl)-1-(oxetan-3-yl)-1H-imidazo[4,5-c]pyridin-2(3H)-one]
EC50 (rgRSV224 virus; [2]): 1.56 nM
CC50 at 3 days [1]: > 9840 nM

CS(=O)(=O)CCCn1c(Cn2c(=O)n(C3CC3)c3ccc(F)cc32)cc2cc(Br)ccc21 [Compound 6, 3-((5-Bromo-1-(3-(methylsulfonyl)propyl)-1H-indol-2-yl)methyl)-1-cyclopropyl-5-fluoro-1H-benzo[d]imidazol-2(3H)-one]
EC50 (rgRSV224 virus; [2]): 1.6 nM
CC50 at 3 days [1]: > 9840 nM

O=c1n(Cc2cc3cc(Cl)ccc3n2CCCCO)c2cnccc2n1C1CC1 [Compound 7, 3-((5-Chloro-1-(4-hydroxybutyl)-1H-indol-2-yl)methyl)-1-cyclopropyl-1H-imidazo[4,5-c]pyridin-2(3H)-one]
EC50 (rgRSV224 virus; [2]): 2.24 nM
CC50 at 3 days [1]: 47600 nM

CS(=O)(=O)CCCn1c(Cn2c(=O)n(C3CC3)c3ccc(F)cc32)cc2cc(Cl)ccc21 [Compound 8, 3-((5-Chloro-1-(3-(methylsulfonyl)propyl)-1H-indol-2-yl)methyl)-1-cyclopropyl-5-fluoro-1H-benzo[d]imidazol-2(3H)-one]
EC50 (rgRSV224 virus; [2]): 3.79 nM
CC50 at 3 days [1]: > 9840 nM

O=c1n(Cc2cc3cc(F)ccc3n2CCCCO)c2cnccc2n1C1CC1 [Compound 9, 1-Cyclopropyl-3-((5-fluoro-1-(4-hydroxybutyl)-1H-indol-2-yl)methyl)-1H-imidazo[4,5-c]pyridin-2(3H)-one]
EC50 (rgRSV224 virus; [2]): 29.4 nM
CC50 at 3 days [1]: 50300 nM

COc1ccc2c(c1)cc(Cn1c(=O)n(C3CC3)c3ccncc31)n2CCCCO [Compound 10, 1-Cyclopropyl-3-((1-(4-hydroxybutyl)-5-methoxy-1H-indol-2-yl)methyl)-1H-imidazo[4,5-c]pyridin-2(3H)-one]
EC50 (rgRSV224 virus; [2]): 38.3 nM
CC50 at 3 days [1]: > 9840 nM

CC(C)CCn1c(Cn2c(=O)n(C3CC3)c3ccncc32)cc2ccccc21 [Compound 12, 1-cyclopropyl-3-((1-isopentyl-1H-indol-2-yl)methyl)-1H-imidazo[4,5-c]pyridin-2(3H)-one]
EC50 (rgRSV224 virus; [2]): 361 nM
CC50 at 3 days [1]: 65500 nM

CS(=O)(=O)CCCn1c(Cn2c(=O)n(C3CC3)c3ccncc32)cc2cc(F)ccc21 [Compound P20]
SI CC50/EC50 (rgRSV224 virus): 15206
EC50 (rgRSV224 virus; [3]): 4.07 nM

CS(=O)(=O)CCCn1c(Cn2c(=O)n(C3CC3)c3ccccc32)cc2cc(Br)ccc21 [Compound P21]
SI CC50/EC50 (rgRSV224 virus): 6322
EC50 (rgRSV224 virus; [3]): 3.88 nM

CS(=O)(=O)CCCn1c(Cn2c(=O)n(C3COC3)c3ccncc32)cc2cc(F)ccc21 [Compound P22]
SI CC50/EC50 (rgRSV224 virus): >4200
EC50 (rgRSV224 virus; [3]): 23.8 nM

CS(=O)(=O)CCCn1c(Cn2c(=O)n(C3CC3)c3ccncc32)cc2cc(C(F)(F)F)ccc21 [Compound P23]
SI CC50/EC50 (rgRSV224 virus): 6557
EC50 (rgRSV224 virus; [3]): 7.37 nM

CS(=O)(=O)CCCn1c(Cn2c(=O)n(C3COC3)c3ccncc32)cc2ccccc21 [Compound P24]
SI CC50/EC50 (rgRSV224 virus): >3065
EC50 (rgRSV224 virus; [3]): 32.6 nM

CS(=O)(=O)CCCn1c(Cn2c(=O)n(C3CC3)c3ccncc32)cc2ccccc21 [Compound P25]
SI CC50/EC50 (rgRSV224 virus): >10945
EC50 (rgRSV224 virus; [3]): 9.14 nM

CS(=O)(=O)CCCn1c(Cn2c(=O)n(C3CC3)c3ccccc32)cc2cc(F)ccc21 [Compound P26]
SI CC50/EC50 (rgRSV224 virus): 2270
EC50 (rgRSV224 virus; [3]): 22.6 nM

CS(=O)(=O)CCCn1c(Cn2c(=O)n(C3CC3)c3ccc(F)cc32)cc2cc(F)ccc21 [Compound P27]
SI CC50/EC50 (rgRSV224 virus): 664
EC50 (rgRSV224 virus; [3]): 36 nM

CS(=O)(=O)CCCn1c(Cn2c(=O)n(C3CC3)c3ccccc32)cc2ccccc21 [Compound P28]
SI CC50/EC50 (rgRSV224 virus): 184
EC50 (rgRSV224 virus; [3]): 348 nM

O=c1n(Cc2cc3cc(F)ccc3n2CCCCF)c2cnccc2n1C1CC1 [Compound P29]
SI CC50/EC50 (rgRSV224 virus): 2149
EC50 (rgRSV224 virus; [3]): 13.8 nM

O=c1n(Cc2cc3cc(Cl)ccc3n2CCCCF)c2cnccc2n1C1CC1 [Compound P30]
SI CC50/EC50 (rgRSV224 virus): 24457
EC50 (rgRSV224 virus; [3]): 0.733 nM

O=c1n(Cc2cc3cc(Br)ccc3n2CCCC(F)(F)F)c2ccccc2n1C1CC1 [Compound P31]
SI CC50/EC50 (rgRSV224 virus): 3446
EC50 (rgRSV224 virus; [3]): 12.1 nM

O=c1n(Cc2cc3cc(Br)ccc3n2CCCC(F)(F)F)c2cnccc2n1C1CC1 [Compound P32]
SI CC50/EC50 (rgRSV224 virus): 53514
EC50 (rgRSV224 virus; [3]): 0.34 nM

N#CCCCn1c(Cn2c(=O)n(C3CC3)c3ccncc32)cc2cc(Cl)ccc21 [Compound P33]
SI CC50/EC50 (rgRSV224 virus): 190625
EC50 (rgRSV224 virus; [3]): 0.266 nM

O=c1n(Cc2cc3cc(F)ccc3n2CCCCF)c2ccccc2n1C1CC1 [Compound P34]
SI CC50/EC50 (rgRSV224 virus): >398
EC50 (rgRSV224 virus; [3]): 251 nM

N#CCCCn1c(Cn2c(=O)n(C3CC3)c3ccccc32)cc2cc(Cl)ccc21 [Compound P35]
SI CC50/EC50 (rgRSV224 virus): 5353
EC50 (rgRSV224 virus; [3]): 3.14 nM

CS(=O)(=O)CCCn1c(Cn2c(=O)n(C3CC3)c3ccccc32)cc2cc(Cl)ccc21 [Compound P40]
SI CC50/EC50 (rgRSV224 virus): >29923
EC50 (rgRSV224 virus; [3]): 2.94 nM

COc1ccc2c(c1)n(Cc1cc3cc(F)ccc3n1CCCS(C)(=O)=O)c(=O)n2C1CC1 [Compound P41]
SI CC50/EC50 (rgRSV224 virus): 886
EC50 (rgRSV224 virus; [3]): 63.4 nM

CS(=O)(=O)CCCn1c(Cn2c(=O)n(CC(F)(F)F)c3ccc(F)cc32)cc2cc(Cl)ccc21 [Compound P50]
SI CC50/EC50 (rgRSV224 virus): 5176
EC50 (rgRSV224 virus; [3]): 4.8 nM

NC(=O)c1c(Cn2c(=O)n(C3CC3)c3ccncc32)n(CCCCF)c2ccc(Cl)cc12 [Compound P54, 5-chloro-2-((1-cyclopropyl-2-oxo-1H-imidazo[4,5-c]pyridin-3(2H)-yl)methyl)-1-(4-fluorobutyl)-1H-indole-3-carboxamide]
EC50 (rgRSV224 virus; [2]): 0.0528 nM
SI CC50/EC50 (rgRSV224 virus): >603587

CS(=O)(=O)CCCn1c(Cn2c(=O)n(CC(F)(F)F)c3ccncc32)cc2cc(Cl)ccc21 [Compound P55]
SI CC50/EC50 (rgRSV224 virus): >258982
EC50 (rgRSV224 virus; [3]): < 0.157 nM

O=c1n(Cc2cc3cc(Cl)ccc3n2CCCN2CCOCC2)c2cnccc2n1C1CC1 [Compound P58]
SI CC50/EC50 (rgRSV224 virus): 7416
EC50 (rgRSV224 virus; [3]): 5.8 nM

N#CCCCn1c(Cn2c(=O)n(CC(F)(F)F)c3ccncc32)cc2cc(Cl)ccc21 [Compound P62]
SI CC50/EC50 (rgRSV224 virus): 81459
EC50 (rgRSV224 virus; [3]): 0.539 nM

NC(=O)c1c(Cn2c(=O)n(C3CC3)c3ccc(F)cc32)n(CCCCF)c2ccc(Cl)cc12 [Compound P63]
SI CC50/EC50 (rgRSV224 virus): >89869
EC50 (rgRSV224 virus; [3]): 1.11 nM

CNC(=O)c1c(Cn2c(=O)n(C3CC3)c3ccncc32)n(CCCC(F)(F)F)c2ccc(Cl)cc12 [Compound P64]
SI CC50/EC50 (rgRSV224 virus): >3896
EC50 (rgRSV224 virus; [3]): 6.42 nM

NC(=O)c1c(Cn2c(=O)n(C3CC3)c3ccc(F)cc32)n(CCCC(F)(F)F)c2ccc(Cl)cc12 [Compound P65]
SI CC50/EC50 (rgRSV224 virus): >45348
EC50 (rgRSV224 virus; [3]): 1.1 nM

O=c1n(Cc2cc3cc(Cl)ccc3n2CCCCF)c2cnccc2n1C1COC1 [Compound P66]
SI CC50/EC50 (rgRSV224 virus): 21581
EC50 (rgRSV224 virus; [3]): 1.25 nM

O=c1n(Cc2cc3cc(Cl)ccc3n2CCCC(F)(F)F)c2cnccc2n1C1COC1 [Compound P67]
SI CC50/EC50 (rgRSV224 virus): >85461
EC50 (rgRSV224 virus; [3]): 1.25 nM

O=C(NC1CC1)c1c(Cn2c(=O)n(C3CC3)c3ccncc32)n(CCCC(F)(F)F)c2ccc(Cl)cc12 [Compound P68]
SI CC50/EC50 (rgRSV224 virus): 249
EC50 (rgRSV224 virus; [3]): 12.6 nM

CC(C)(O)CCCn1c(Cn2c(=O)n(C3CC3)c3ccncc32)cc2cc(Cl)ccc21 [Compound P72]
SI CC50/EC50 (rgRSV224 virus): 24273
EC50 (rgRSV224 virus; [3]): 1.58 nM

CC(C)(O)CCCn1c(Cn2c(=O)n(C3COC3)c3ccncc32)cc2cc(Cl)ccc21 [Compound P73]
SI CC50/EC50 (rgRSV224 virus): 15070
EC50 (rgRSV224 virus; [3]): 3.16 nM

CC(C)(O)CCCn1c(Cn2c(=O)n(CC(F)(F)F)c3ccncc32)cc2cc(Cl)ccc21 [Compound P74]
SI CC50/EC50 (rgRSV224 virus): 15708
EC50 (rgRSV224 virus; [3]): 3.16 nM
